Tests used:
[1] = system: Picual olives; assay: Application of strigolactone analogs by irrigation to olive seedlings; format: in vivo, Olea europaea L.; settings: for number of growing buds / lateral branches: irrigation to roots twice a week for 6 weeks, 0.03 and 0.3 μM, vs control
Protocol: The effect of application of various analogues of strigolactone (SL) on olives, given to roots by irrigation was examined. Three different SL analogs; […] The seedlings were rooted from cuttings and hardened, and were about 6 months old at the time of the experiment. Growth soil mixture was used as in the nursery. Each strigolactone analog was dissolved in acetone to give a 5.6 mM solution. This solution was then further diluted with distilled water to 0.03 and 0.3 μM. The diluted solution was injected to the roots twice a week for 6 weeks, and subsequently all the growing buds were counted. For each treatment (treated and control groups) 10 plants were measured. Experiments were repeated three times.

[2] = Mass spectrometry analysis of GR24 test solutions (molecular stability); format: physicochemical
Protocol: Mass spectrometry (MS) analysis was performed to GR24 test solutions using the Orbitrap XL (Thermo Fisher Scientific). The samples were injected directly using direct spray injection probe, in 50% acetonitrile solution and at […] flow rate. A full scan was acquired to detect the GR24 peaks, at 60,000 resolution, Maximum ion fill time settings were 300 ms for the high resolution full scan in the Orbitrap analyzer. The spectra are sum of 10 sec acquisition. Results observed by Xcalibur© software of Thermo Fisher Scientific Inc. version 2.0.7. were analyzed manually.
Next, GR24 was stabilized with Hydroxypropyl Cellulose (HPC), which is a […] medium. Granular HPC [Sigma-Aldrich Israel Ltd., CAS-No. 9004-64-2] (1 g) was ground to a fine powder using a mortar and pestle, mixed with sterile distilled water to make about 10 mL of gel, and then allowed to stand for 1 day for complete dissolution at room temperature. Stability of GR24 was tested by both biological activity of the strigolactone and by assessing the molecule using LC-MS.

[3] = system: Orobanche aegyptiaca seeds; assay: Orobanche Germination Assay (biological activity after stress treatments); format: in vivo
Protocol: The implementation of the strigolactone analogs necessitates a degree of material stability, to ensure their activity on the plant under various growth conditions. Accordingly, the stability of the strigolactone analog GR24 was tested under different environmental conditions. GR24 in acetone stock solution of 5.6 mM was diluted in double distilled water (DDW) or HPC pre-made gel to a concentration of 0.56 μM in eppendorf tubes and was subjected to the following treatments:
GR24 solutions of 0.56 μM, diluted either in DDW or in HPC pre-made gel in eppendorf tubes were incubated in a dry block heater at temperatures of 4° C., 20° C., 40° C., 60° C. digitally set for periods of 3 h, 1 d, 2 d, 4 d, 5 d and 7 d under ambient light.
GR24 solutions of 0.56 μM, diluted either in DDW or in HPC pre-made gel, each in quartz tubes (15 replicates for each treatment) were exposed to UV radiation of λ=312 nm under UV lamp of 600 or 857 μE intensity for periods of 15 min, 30 min or 18 h.
Biological activity was determined by Orobanche Germination Assay: Approximately 30 to 50 seeds of Orobanche aegyptiaca were spread on a glass fiber filter paper disk (9-mm diameter) and put into sterile petri dishes (9-cm diameter) lined with Whatman filter paper wetted with 3 mL of demineralized water. Petri dishes were sealed with parafilm and incubated at 27° C. for preconditioning. After one week of preconditioning period, the glass fiber filter paper disks with Orobanche seeds were removed from the petri dish and dried for 20 min to remove surplus moisture. The disks were transferred to another petri dish within a filter paper ring (outer diameter of 9 cm; inner diameter of 8 cm) wetted with 0.9 mL of water, which maintained a moist environment during the germination bioassay. Forty microliters of the GR24 test solutions were added to the disks. Untreated GR24 at a 0.56 μM concentration was used as a positive control, water or HPC pre-made gel as negative controls. Germination percent was calculated using the counter cell analysis of the IMAGEJ (http://www.//rsbweb.nih.gov/ij/) software. Germinated seeds were distinguished from non-germinated seeds according to the seedling radicles, which are a few millimeters long and visible under a stereomicroscope (Leica MZFLIII, Leica Microsystems, GmbH).
For each of the GR24 treatments fifteen replicates with 30-40 seeds were tested per treatment with 40 μl of 0.56 μM GR24 test solutions pre-treated as described above. The experiment was repeated three times (n=450 seeds).
Next, GR24 was stabilized with Hydroxypropyl Cellulose (HPC), which is a […] medium. Granular HPC [Sigma-Aldrich Israel Ltd., CAS-No. 9004-64-2] […]

[4] = system: olive seedling; assay: Application to olive seedling stem under greenhouse conditions (parafilm, flexible or rigid tubes); settings: in vivo
Protocol: EGO10 either with PVAc, or HPC+glycerin were applied on olive seedling stem by the use of parafilm cover as the apparatus, under greenhouse conditions (FIG. 15). Greenhouse conditions include controlled room temperature of 25° C. In each experiment, 10 plants were used for each treatment. The substances were applied on the stem by a spatula and covered with parafilm.
In attempt to improve the performance of the apparatus, different substances and different cover were used. Four formulations were developed and tested. These formulations are based on polysaccharide-sorbent-humidifier substances while the main difference between them is the viscosity of the final product and the ability to retain and release of the active ingredient (EGO 10). […] The cover consisted of a flexible plastic tube that was cut (FIG. 16A), placed on the seedling stem (FIG. 16B) and wrapped with transparent plaster (FIG. 16C). The plastic tubes were filled with the experimental material (FIG. 16D). Moist cotton was placed on both sides of the tubes to minimize water evaporation (FIG. 16E and FIG. 16F). Bud outgrowth was measured for 30 days.
Rigid plastic tubes were tested in order to determine their efficiency as a delivery device for application of the hormone formulations to plants. At first, eppendorf tubes served as prototype. The tubes ware cut from top to bottom and placed on the stem of seedlings. Each tube was sealed with a small moist cotton at the bottom, filled with 1 ml of the examined material and finally covered with transparent plastic tape (FIGS. 17A-17E). The tubes were filled with (HPC+glycerin), or PVAc and EGO10 In each experiment, 10 plants were used for each treatment. Greenhouse conditions include controlled room temperature of 25° C.
EGO10 (10 μM) or acetone control together with HPC+glycerin or PVAc were applied on the stem of olive cuttings by the use of rigid plastic tubes as described in Example 10 above.
Bud outgrowth of olive cuttings was measured until day 30.

Row | Compound | number of growing buds / lateral branches [1] | concentration at which the effect was most prominent ([1]; irrigation twice a week, 0.03 and 0.3 μM tested) [µM] | structure of the molecule in HPC medium (LC-MS) ([2]; GR24 in HPC, under the examination conditions) | molecular stability (MS) ([2]; long term exposure (over 5 days) to temperatures above 40° C., acidic pH solutions, UV irradiation) | biological activity (Orobanche germination) after stress ([3]; 0.56 μM, long term exposure (over 5 days) to temperatures above 40° C., acidic pH solutions, UV irradiation) | biological activity in HPC medium ([3]; GR24 in HPC pre-made gel) | seedling outgrowth with medium plus acetone control [4]
1 | CC1=C[C@H](O/C=C2/C(=O)O[C@@H]3c4ccccc4C[C@H]23)OC1=O (relative stereo) [GR24, (3aR*,8bS*,E)-3-(((R*)-4-methyl-5-oxo-2,5-dihydrofuran-2-yloxy)-methylene)-3,3a,4,8b-tetrahydro-2H-indeno[1,2-b]furan-2-one, reference compound] | significant reduction in number of lateral branches | 0.03 | remained intact | molecularly degrading | loses biological activity | stabilized GR24 by increasing its biological activity | –
2 | CC1=CC(O/C=C2/C(=O)c3c(c4cc(-c5scc6c5OCCO6)ccc4n3C)C2C)OC1=O (centres unmarked) [ST362, (2E)-2-[(2,5-dihydro-4-methyl-5-oxofuran-2-yloxy)methylene]-1,2-dihydro-7-(2,3-dihydrothieno[3,4-b][1,4]dioxin-7-yl)-1,4-dimethyl-cyclopenta[b]indole-3-(4H)-one] | similar, albeit less potent effect | – | – | – | – | – | –
3 | polyvinyl acetate [PVAc] | – | – | – | – | – | – | led to inhibition of seedling outgrowth

Source: patent publication US20180235213A1, “PLANT HORMONE APPLICATION” (The State of Israel Ministry of Agriculture & Rural …, priority 2015, published 2018)
